According to PMC10465493, “Osteogenic induction of asiatic acid derivatives in human periodontal ligament stem cells” (Scientific Reports, 2023):
In brackets after ≈: the same amount, converted by molar mass. Where two headings read alike, the source gives them in different places. One block for each molecule: values may come before it.

How the values were obtained:
[1] = Aqueous solubility by gravimetric method; format: physicochemical; conditions: thermodynamic from solid, ultrapure water, shaken 24 h, n = 6
Method: Aqueous solubility of AA and its derivatives were screened using a gravimetric method. Briefly, AA and the derivatives were dissolved in an excess amount in ultrapure water, and the samples were shaken at room temperature and 37 °C for 24 h. After that, the samples were centrifuged to separate the undissolved compounds. The specific volume of supernatants was then collected and lyophilised. The residual solid after lyophilisation was weighed using a 7-digit balance (XPR2u, Mettler Toledo, OH, USA), and the maximum solubility in water at the different temperature was calculated based on the volume of the collected solution of the compounds. […]

[2] = Cell viability, PrestoBlue resazurin assay; format: cell-based, human; conditions: human, hPDLSCs, 300 nM; for viability at 24 h, 0.3 µM: day 1, general medium
Method: (§1) Stock solutions of AA, 501, 502, 503, and 506 were prepared in DMSO at the concentration of 100 µM, before diluting in culture medium to the desired concentration. Cell viability after exposure to the drugs was investigated using a PrestoBlue™ resazurin assay according to the manufacturer’s protocol. Cells with a density of 60,000 cells/well were plated in 24 well-plates and cultured in a normal growth medium for 24 h. Then the cells were treated with 300 nM AA and solutions of, 501, 502, 503, and 506. After 24-h and 5-day incubation, the cultures were treated with resazurin working solution, and the fluorescence intensity at an emission wavelength of 590 nm was measured with excitation of 560-nm wavelength using a microplate reader (Synergy H1, Biotek multi-mode reader, Winooski, VT, USA). Untreated cells were used as the control, and the experiment was performed on different cell lines of at least five donors.

[3] = tested on: hPDLSCs; test: Cell viability, PrestoBlue resazurin assay; format: cell-based, human; conditions: 300 nM, up to 5 days
Method: as §1

[4] = tested on: hPDLSCs; test: mRNA expression of osteogenic marker genes by quantitative RT-PCR; format: cell-based, human; conditions: for mRNA expression of all markers (BMP2, RUNX2, COL1A1, WNT3A): 100 nM (10 nM for 503)
Method: Cells were seeded in 24 well-plates at a density of 60,000 cells/well and treated with AA or the derivatives at different concentrations. The media was changed every other day to ensure the continuous activities of AA derivatives. For Erk inhibition experiments, cells were pretreated with 2.5 nM Erk inhibitor (cat. No. 328006, Calbiochem, San Diego, CA, USA) for 2 h prior to the treatment of AA derivatives. At each time point, the total RNA was extracted using TRIzol® reagent following the standard protocol, and the RNA content and purity were measured using a microvolume spectrophotometer (NanoDrop™ One, Thermo Fisher Scientific, USA). Then, 1 μg of RNA sample was reverse-transcribed into complementary DNA (cDNA) using Improm II reverse transcription system (Promega, USA). The expression levels of the target genes were detected by real-time polymerase chain reaction using the SYBR green detection system (FastStart Essential DNA Green Master, Roche Diagnostics, Switzerland) on the MiniOpticon™ RT-PCR system (Bio-Rad, USA). The quantitative RT-PCR was carried out using a LightCycler® 96 (Roche Diagnostics, Switzerland). The transcript expression of GAPDH was used as the internal control. The relative gene expression analysis was performed using the CFX Manager software (Bio-Rad, USA). The expression value was normalised using an expression value of cellular housekeeping gene, GAPDH, and the control was considered for each respective day.

[5] = tested on: osteoclastogenesis; design: method as in PMID 32292339; conditions: cited from earlier work
[6] = octanol/water, cited from earlier work
[7] = tested on: hPDLSCs; test: BMP2 protein expression by ELISA; format: cell-based, human; conditions: 100 to 300 nM, D1 and D3, general medium
Method: The expression levels of targeted proteins were analysed by a sandwich ELISA assay. Firstly, the cells were lysed, and the amount of protein was analysed using a Bio-Rad BCA protein assay kit (Bio‐Rad Laboratories, USA). Following the standard protocol, the target proteins were analysed using an ELISA kit (R&D Systems, USA).

[8] = tested on: hPDLSCs; test: Alkaline phosphatase (ALP) activity assay; format: cell-based, human; conditions: 100, 200, 300 nM, D3, normalised to total cellular protein
Method: At the designated time points, the ALP activity was measured. Cells treated with different concentrations of AA derivatives were collected, washed with PBS, and lysed with alkaline lysis buffer. The cell lysate was incubated with a mixture containing 2 mg/mL p-nitrophenyl phosphate, 0.1 M 2-amino-2-methyl-1-propanol and 2 mM MgCl2. After incubation at 37 °C for 30 min, the reaction was terminated by addition of 50 mM NaOH. The absorbance at 410 nm was measured, and the quantitative data was normalised by the amount of total cellular protein.

[9] = tested on: hPDLSCs; test: Von Kossa and Alizarin red S staining for mineralisation; format: cell-based, human; conditions: 300 nM, 14 days, general medium, compared to osteogenic medium (positive control)
Method: In vitro mineralisation was visualised following calcium staining using Von Kossa’s method and Alizarin red S staining according to an established protocol. Briefly, on day 14, the cells were washed and fixed with cold methanol for 10 min before rinsing with deionised water. Von Kossa staining was performed by treating the fixed cells with 5%w/v silver nitrate solution for 30 min. For Alizarin Red S staining, the Alizarin Red S solution (0.5% w/v, pH 4.2) was incubated with the fixed cells for 5 min. The mineralised nodule formation was observed under a phase-contrast microscope (Nikon ECLIPSE Ts2, Nikon, USA). Cells cultured in a normal growth medium were used as the negative control. The cells cultured in an osteogenic medium (DMEM supplemented with […] ascorbic acid, 100 nM dexamethasone, and 10 mM β-glycerophosphate) were regarded as the positive control.

[10] = 37 °C, read-out: Experimental solubility in water at 37 °C (average ± SD)
[11] = room temperature, read-out: Experimental solubility in water at room temperature (average ± SD)
[12] = 300 nM, days 1 and 3, general medium

SMILES: C[C@H]1[C@H](C)CC[C@]2(C(=O)O)CC[C@]3(C)C(=CC[C@@H]4[C@@]5(C)C[C@@H](O)[C@H](O)[C@@](C)(CO)[C@@H]5CC[C@]43C)[C@H]12 [AA, Asiatic acid]
solubility at 24 h [1, 10]: 723 ± 184 µg/mL (≈ 1480 µM)
solubility at 24 h [1, 11]: 541 ± 76.8 µg/mL (≈ 1110 µM)
viability at 24 h, 0.3 µM [2]: > 90%
Toxicity to hPDLSCs [3]: no significant toxicity
mRNA expression of all markers (BMP2, RUNX2, COL1A1, WNT3A) ([4]; 24 h, normal growth medium): no observable change
Concentration required to inhibit osteoclastogenesis or bone loss [5]: up to 20 µM
Theoretical log P ([6]; ref 33): 5.8
Theoretical log P ([6]; ref 38, 39): 5.7

solubility at 24 h [1, 10]: 654 ± 95.5 µg/mL (≈ 1060 µM)
solubility at 24 h [1, 11]: 272 ± 31.5 µg/mL (≈ 442 µM)
SMILES: CC(=O)OCC1(C)C(OC(C)=O)C(OC(C)=O)CC2(C)C1CCC1(C)C2CC=C2C3C(C)C(C)CCC3(C(=O)O)CCC21C (stereo not drawn) [compound 501]
viability at 5 days, 0.3 µM ([2]; day 5, general medium): < 75%
mRNA expression of all markers (BMP2, RUNX2, COL1A1, WNT3A) ([4]; 24 h, normal growth medium): no observable change

solubility at 24 h [1, 10]: 14.5 ± 4.7 µg/mL (≈ 21.6 µM)
solubility at 24 h [1, 11]: 10 ± 1.5 µg/mL (≈ 14.9 µM)
SMILES: CCCCOC(=O)C12CCC(C)C(C)C1C1=CCC3C4(C)CC(OC(C)=O)C(OC(C)=O)C(C)(COC(C)=O)C4CCC3(C)C1(C)CC2 (stereo not drawn) [compound 502]

solubility at 24 h [1, 10]: 331 ± 82.6 µg/mL (≈ 473 µM)
solubility at 24 h [1, 11]: 164 ± 28.2 µg/mL (≈ 235 µM)
SMILES: CC(=O)OC[C@@]1(C)C2CC[C@]3(C)C(CC=C4[C@@H]5[C@@H](C)[C@H](C)CC[C@]5(C(=O)NCCCN(C)C)CC[C@]43C)[C@@]2(C)C[C@@H](OC(C)=O)[C@@H]1OC(C)=O (stereo partly drawn) [compound 503]
viability at 24 h, 0.3 µM [2]: < 40%
mRNA expression of all markers (BMP2, RUNX2, COL1A1, WNT3A) ([4]; 24 h, normal growth medium): no observable change

solubility at 24 h [1, 10]: 852 ± 85.6 µg/mL (≈ 1490 µM)
solubility at 24 h [1, 11]: 810 ± 36 µg/mL (≈ 1410 µM)
ALP activity [8]: dose-dependent increase
SMILES: C[C@H]1[C@H](C)CC[C@]2(C(=O)NCCCN(C)C)CC[C@]3(C)C(=CCC4[C@@]5(C)C[C@@H](O)[C@H](O)[C@@](C)(CO)C5CC[C@]43C)[C@H]12 (stereo partly drawn) [compound 506]
Toxicity to hPDLSCs [3]: no significant toxicity
BMP2 mRNA expression ([4]; 100 nM, 24 h, normal growth medium): high expression
WNT3A expression with Erk inhibitor ([4]; 300 nM 506, pretreated with Erk inhibitor, general medium): inhibited
BMP2 expression ([4]; 300 nM, day 1): High expression
BMP2 expression ([4]; 300 nM, day 3): declining to a control level
WNT3A transcript level ([4]; 300 nM, day 3): elevated transcript level
COL1A1 expression level [4, 12]: no observable change
RUNX2 expression level [4, 12]: no observable change
ALP expression level compared to control ([4]; 300 nM, general medium): enhanced
BMP2 expression level compared to control ([4]; 300 nM, general medium): enhanced
IBSP expression level compared to control ([4]; 300 nM, general medium): enhanced
OSX expression level compared to control ([4]; 300 nM, general medium): enhanced
BMP2 gene expression ([4]; 100 to 300 nM, first day after exposure, general medium): elevated transcript level at the lower concentrations (100 and 200 nM)
BMP2 protein expression [7]: dose-dependent increase
Tissue mineralisation (calcium deposition) [9]: comparable to those same cells cultured in an osteogenic medium
